Assay [1] deals with T1, μ-opioid receptor (Homo sapiens (Human), UniProt P35372). Nature of the assay: μ-opioid receptor [35S]GTPγS functional assay, U-2 OS cells (Table 5). The assay is classed as biochemical. Put shortly:
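Membranes (0.026 mg/mL) from cells expressing recombinant human μ-opioid receptor in a U-2 OS background were incubated with 0.20 nM [35S]GTPγS, 3 mM GDP and saponin in 20 mM HEPES pH 7.4, 100 mM NaCl, 10 mM MgCl2 for 30 min at about 25 °C. Filter-bound radioactivity counted; sigmoidal dose-response fits gave values, Emax relative to DAMGO.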

Another assay concerns the target κ-opioid receptor (Homo sapiens (Human), UniProt P41145). Nature of the assay: κ-opioid receptor [35S]GTPγS functional assay, U-2 OS cells (Table 5). It counts as biochemical. Put shortly:
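[35S]GTPγS binding in κ receptor membranes (0.026 μg/μl protein) with 10 μg/mL saponin, 3 μM GDP and 0.20 nM [35S]GTPγS in pH 7.4 HEPES/NaCl/MgCl2 buffer. Agonist incubation lasted 30 min at about 25 °C, followed by filtration and scintillation counting. Emax is expressed relative to U69,593.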
In general terms: GTPγS is a poorly hydrolysed GTP analogue; its binding reports G protein activation.

Assay [2] has as its target T1, μ-opioid receptor. Nature of the assay: μ-opioid receptor radioligand binding assay ([3H]-diprenorphine). To be noted: binding affinity. As for the experimental part: μ-Opioid Receptor Binding Assay Procedures: Radioligand dose-displacement binding assays for μ-opioid receptors used 0.3 nM [^3H]-diprenorphine (Perkin Elmer, Shelton, Conn.), with […] membrane protein/well in a final volume of 500 μl binding buffer (10 mM MgCl2, 1 mM EDTA, 5% DMSO, 50 mM HEPES, pH 7.4). Reactions were carried out in the absence or presence of increasing concentrations of unlabeled naloxone. All reactions were conducted in 96-deep well polypropylene plates for 2 hours at room temperature. Binding reactions were terminated by rapid filtration onto 96-well Unifilter GF/C filter plates (Perkin Elmer, Shelton, Conn.), presoaked in 0.5% polyethylenimine using a 96-well tissue harvester (Perkin Elmer, Shelton, Conn.) followed by performing three filtration washes with 500 μl of ice-cold binding buffer. Filter plates were subsequently dried at 50° C. for 2-3 hours. BetaScint scintillation cocktail (Perkin Elmer, Shelton, Conn.) was added (50 μl/well), and plates were counted using a Packard Top-Count for 1 min/well. The data were analyzed using the one-site competition curve fitting functions in GraphPad PRISM™ v. 3.0 or higher (San Diego, Calif.), or an in-house function for one-site competition curve-fitting.

The target in assay [3] is recombinant human kappa opioid receptor (κ) (Homo sapiens (Human), UniProt P41145). Nature of the assay: κ-opioid receptor radioligand binding assay ([3H]-U69,593). Conditions: binding affinity.

For the compound `NC(=O)[C@@H]1C[C@]23CCN(CC4CC4)[C@H](Cc4ccc(O)cc42)[C@]3(O)C1` [Compound 31, (2R,3aS,4R,9bS)-12-(cyclopropylmethyl)-3a,8-dihydroxy-1,2,3,3a,4,5-hexahydro-4,9b-(epiminoethano)cyclopenta-[a]naphthalene-2-carboxamide], the Emax at μ-opioid receptor [1] (relative to DAMGO) amounted to 49 ± 3.76%; at κ-opioid receptor (relative to U69,593), 87.5 ± 5.04%. In addition, the EC50 on μ-opioid receptor [1] (μ GTP) worked out at 2.35 ± 0.32 nM; on κ-opioid receptor (κ GTP), 2.62 ± 0.024 nM. The Ki on μ-opioid receptor [2] was 10.2 ± 3.58 nM; in assay [3], 0.84 ± 0.26 nM.

What is called Emax is the greatest response seen or fitted, relative to the assay's reference. As a reminder, the EC50 is the midpoint of the concentration-response curve. A lower EC50 goes with greater potency. Broadly, the Ki is a dissociation constant, usually derived from enzyme kinetics or from competition with a known ligand.

The record behind these values is US9656962B2, “Ring-contracted morphinans and the use thereof” (Purdue Pharma L.P., priority 2013, dated 2017).
